Laboratory results reported in US7452523B2 (priority 2004, dated 2008).
Where two headings read alike, the source gives them in different places.

Columns and labels:
[1] = tested on: mild to moderate asthma patients; conditions: for incidence of oropharyngeal numbing, noted at least once: 12 week study
[2] = tested on: patients suffering from cough
[3] = tested on: cough responses in guinea pigs; conditions: cited from earlier work
[4] = tested on: patient with persistent refractory tussive syncope; conditions: 1 ml of 1% nebulized every 4 hours for 10 days, with other anti-tussive drugs; cited from earlier work
[5] = tested on: chronic refractory cough; conditions: 3 ml of 1% nebulized twice a day 6-10 weeks, with other drugs; cited from earlier work
[6] = tested on: persistent cough after stellate ganglion block; conditions: 1 ml of 2% in 2 ml normal saline, nebulized; cited from earlier work
[7] = tested on: cough; conditions: nebulized before fibreoptic bronchoscopy; cited from earlier work
[8] = tested on: capsaicin-induced cough; conditions: lignocaine 20 mg, alone or with adrenaline; cited from earlier work
[9] = tested on: cough; conditions: cited from earlier work
[10] = tested on: cough; conditions: cited from earlier work; remark: listed apart in the source

Compound: CCN(CC)CC(=O)Nc1c(C)cccc1C [lidocaine, acetamide 2-(diethylamino)-N-(2,6-dimethylphenyl)]
- patients with one or more respiratory AEs ([1]; 10 mg (16/55)): 29%
- incidence of oropharyngeal numbing, noted at least once ([1]; 10 mg (22/55)): 40%
- patients with at least one adverse event ([1]; 10 mg twice daily, 12 weeks (39/55)): 71%
- incidence of oropharyngeal numbing, noted at least once ([1]; 40 mg (16/51)): 31.45%
- patients with one or more respiratory AEs ([1]; 40 mg (18/51)): 35%
- patients with at least one adverse event ([1]; 40 mg twice daily, 12 weeks (33/51)): 65%
- lung deposition of lidocaine ([1]; compared with previous delivery): increased two- to three-fold
- loss of gag reflex ([1]; human, in vivo): No loss of gag reflex
- reports of bronchospasm upon lidocaine delivery ([1]; human, in vivo): no reports of bronchospasm
- tracheal aspiration of food or liquid ([1]; human, in vivo): No case
- symptoms of cough patients sensitive to smoke, dust, airway pollution ([2]; 10 mg or 40 mg inhaled twice daily): substantial improvement of their symptoms
- suppression of severe chronic cough ([2]; 16 mg lung dose delivered as 40 mg/1 ml saline, less than 2 minutes): very efficacious
- cough in cystic fibrosis, bronchiectasis or other suppurative pulmonary disease ([2]; aerosolized): successful in suppressing the cough
- tolerability and safety of aerosol ([2]; formulation pH between 5.5 and 7.0): well tolerated and safe
- efficacy in seasonal non-severe cough ([2]; three mg delivered to the lung): efficacious
- total number of coughs induced by capsaicin ([3]; 10 to 30 mg/ml): reduced the total number of coughs
- onset of the first cough ([3]; aerosol 0.1 to 10 mg/ml): delay onset of the first cough
- time course of cough responses ([3]; aerosol 0.1 to 10 mg/ml): no significant effect
- total number of coughs ([3]; aerosol 0.1 to 10 mg/ml): reduce the total number of coughs
- syncopal episodes [4]: able to resolve syncopal episodes
- treatment of refractory cough [5]: effective
- treatment of persistent cough [6]: Treatment was achieved
- time to cough suppression [7]: 10 to 15 min
- coughing [8]: significantly reduced coughing
- anesthesia of oropharynx ([9]; 10 ml of 4%, about 30 minutes): substantial anesthesia of oropharynx
- duration of cough suppression ([9]; after the first treatment, 10 ml of 4%): about 9 weeks
- duration of cough suppression ([9]; after the second administration): 7.5 weeks
- cough ([10]; 10 to 20 mg every 4-6 hours, albuterol pretreatment): abolished cough
- bronchoconstriction ([10]; 10 to 20 mg every 4-6 hours): not bronchoconstriction
- bronchospasm on administration ([10]; in vivo): triggers bronchospasm
